Measured values taken from publication PMC9399058, “Preclinical evaluation of FAP-2286 for fibroblast activation protein targeted radionuclide imaging and therapy” (European Journal of Nuclear Medicine and Molecular Imaging, 2022).
Where two headings read alike, the source gives them in different places. One block for each molecule: values may come before it.

How the values were obtained:
[1] = SPECT/CT biodistribution of 111In-labeled tracers in HEK-FAP tumor-bearing mice; format: in vivo, mouse; conditions: mouse; for tissue uptake at 1 h / tissue uptake at 3 h / tissue uptake at 6 h / tissue uptake at 24 h / tissue uptake at 48 h: in vivo
Method: (§1) HEK-FAP cell line was generated using the vector pTAR to insert FAP complementary DNA by recombinase-mediated cassette exchange into the pre-tagged HEK293 cells (InSCREENeX). For in vivo HEK-FAP studies, female nude or SCID beige mice (Charles River Laboratories) were subcutaneously implanted with 5 × 10^6 HEK-FAP cells in 150 µL serum-free media:Matrigel (1:1) (Corning). For the patient-derived xenograft (PDX) efficacy study, female NMRI nu/nu mice (Janvier Labs) were subcutaneously implanted with Sarc4809 fragments (Experimental Pharmacology & Oncology Berlin-Buch). All animal experiments were carried out under licenses approved by the respective authorities and in compliance with guidelines on animal welfare.
(§2) Thirty megabecquerels (30 MBq/nmol) ^111In-FAP-2286 (n = 9) or ^111In-FAPI-04 (n = 6) was injected intravenously (IV) into HEK-FAP tumor-bearing mice and the distribution of the radiotracers was assessed using the NanoSPECT/computed tomography (CT) system (Mediso). For PET imaging, 10 MBq of ^68Ga-FAP-2286 or ^68Ga-FAPI-46 (10 MBq/nmol) was given IV into HEK-FAP tumor-bearing mice (n = 3) followed by PET/CT analysis using the nanoScan PET/CT system (Mediso). For SPECT imaging of ^177Lu-labeled FAP-2286 or ^177Lu-labeled FAPI-46, 30 MBq was administered IV (30 MBq/nmol; n = 3) and the distribution of the radiotracers was assessed using the nanoScan SPECT/CT system (Mediso).
(§3) The animal studies were conducted in different laboratories. ^111In-Imaging and efficacy studies using the HEK-FAP model and different doses of ^177Lu-FAP-2286 as well as the Sarc4809 PDX efficacy study took place at Berlin Experimental Imaging Center (BERIC, Germany). The Sarc4809 model was originally derived from a primary lesion of undifferentiated pleomorphic sarcoma. These studies were performed in either female swiss nude (Charles River Laboratories, France – ^111In-Imaging), NMRI nude (Janvier Labs, France – PDX efficacy study) or SCID beige mice (Charles River Laboratories, Germany - ^111In-Imaging). ^68Ga-Imaging and comparative studies with ^177Lu labeled FAP-2286 and FAPI-46 were performed at Minerva Imaging ApS, Denmark using female athymic nude mice (Charles River Laboratories, Germany). For all experiments animals were ordered with an age of approximately 6 weeks. Animals were allowed an acclimatization period of at least one week prior to inoculation. Animals were housed in an animal room with 12 hours light and 12 hours darkness with free access to food and water. A maximum number of 5 animals were housed in the same cage, cages were equipped with nesting material and plastic or paper houses for hiding. Each cage was labeled with study ID, group and animal numbers and test compound. For efficacy studies animals were randomized according to tumor size. Animals were checked daily for any signs of illness or abnormal behavior. Main humane endpoints were defined as tumor volumes > 1500 mm^3, tumor burden > 10% of animal weight, body weight loss >15% and tumor ulceration. When reaching one of these criteria the animal was sacrificed by cervical dislocation. All animal experiments were approved either by the Regional Office for Health and Social Affairs Berlin (LAGeSo), Germany or the National Animal Experiments Inspectorate under the Ministry of Environment and Food of Denmark.
(§4) Imaging and image analysis were performed as described. During the scan, mice were kept under isoflurane anesthesia, and body temperature was maintained under warm air. The following acquisition parameters were used for the respective imaging modality.
(§5) For quantification, VivoQuant (InviCRO) was used to draw regions of interest (ROIs) in relevant tissues, with a ROI drawn over the left ventricle of the heart to serve as blood pool surrogate. […]

[2] = Plasma stability assay, mouse plasma; format: in vitro ADME; conditions: 24 h at 37 °C
Method: FAP-2286 was incubated in human or mouse plasma at 37 °C for 24 h. Compound concentration was measured using HPLC–MS/MS (Agilent Technologies) and percent concentration remaining was calculated.
FAP-2286 was incubated in 50 µL of plasma with 3.8% sodium citrate as anticoagulant at a concentration of 10 µM. After 1, 2, 4, and 24 hours incubation at 37°C a suitable internal standard was added. FAP-2286 with plasma proteins were precipitated using 150 µL of a precipitation agent consisting of 77% 0.1 M zinc sulfate solution and 23% acetonitrile. Precipitation was carried out on ice for 30 minutes. […]
A nonincubated plasma sample spiked with 10 µM sample concentration was prepared in the same way and was used as the reference. […] The samples were analyzed using an Agilent 1290 UHPLC system coupled to an Agilent 6530 QTOF mass spectrometer.
For the quantitative data analysis, the Agilent Quantitative Analysis B.08.00 software (RRID:SCR_015040) was used. […] The concentration of the compound was determined by external matrix calibration using 6 calibration samples (1, 2.5, 5, 7.5, 10, and 12.5 µM). […] Carryover was determined by analyzing the blank sample directly after the highest calibration sample and comparing the determined peak areas. Recovery was calculated as the ratio between the spiked concentration of the recovery sample and the concentration calculated from the peak area of this sample.

HEK-FAP xenografts = assay: SPECT/CT biodistribution and tumor dosimetry of 177Lu-labeled tracers in HEK-FAP tumor-bearing mice; format: in vivo, mouse; conditions: 177Lu-labeled, HEK-FAP tumors
Method: as §1, §2, §3, §4, §5

[3] = PET/CT biodistribution of 68Ga-labeled tracers in HEK-FAP tumor-bearing mice; conditions: mouse, in vivo, 10 MBq IV, n=3
Method: as §1
as §2, with “(Mediso). […]” for “(Mediso). For PET imaging, 10 MBq of ^68Ga-FAP-2286 or ^68Ga-FAPI-46 (10 MBq/nmol) was given IV into HEK-FAP tumor-bearing mice (n = 3) followed by PET/CT analysis using the nanoScan PET/CT system (Mediso).”, “(Mediso). […]” for “(Mediso).”
as §5

neoplastic lesions = test system: neoplastic lesions; set-up: method as in PMID 34168013; conditions: patients with pancreatic, breast, ovarian, or colorectal carcinomas ref 51; cited from earlier work

- tissue to tissue ratio at 1 h ([1]; female, tumor and kidney, iv, 30 MBq, total radioactivity, tumor-to-kidney, 1 h p.i., read-out: T/K ratio (mean ± SD)): 3 ± 1.3
- tissue to tissue ratio at 3 h ([1]; female, tumor and kidney, iv, 30 MBq, total radioactivity, tumor-to-kidney, 3 h p.i., read-out: T/K ratio (mean ± SD)): 4.6 ± 1.9
- tissue to tissue ratio at 6 h ([1]; female, tumor and kidney, iv, 30 MBq, total radioactivity, tumor-to-kidney, 6 h p.i., read-out: T/K ratio (mean ± SD)): 5 ± 2.8
- tissue to tissue ratio at 24 h ([1]; female, tumor and kidney, iv, 30 MBq, total radioactivity, tumor-to-kidney, 24 h p.i., read-out: T/K ratio (mean ± SD)): 5.9 ± 3.3
- tissue to tissue ratio at 48 h ([1]; female, tumor and kidney, iv, 30 MBq, total radioactivity, tumor-to-kidney, 48 h p.i., read-out: T/K ratio (mean ± SD)): 7.5 ± 4.8
- tissue uptake at 1 h ([1]; 1 h p.i., read-out: Salivary Glands %ID/g (mean ± SD)): 0.6 ± 0.4 %ID/g
- tissue uptake at 3 h ([1]; 3 h p.i., read-out: Salivary Glands %ID/g (mean ± SD)): 0.2 ± 0.1 %ID/g
- tissue uptake at 6 h ([1]; 6 h p.i., read-out: Salivary Glands %ID/g (mean ± SD)): 0.2 ± 0.2 %ID/g
- tissue uptake at 1 h ([1]; heart, 1 h p.i., read-out: Blood Pool Surrogate %ID/g (mean ± SD)): 0.4 ± 0.1 %ID/g
- tissue uptake at 3 h ([1]; heart, 3 h p.i., read-out: Blood Pool Surrogate %ID/g (mean ± SD)): 0.1 ± 0.1 %ID/g
- tissue uptake at 6 h ([1]; heart, 6 h p.i., read-out: Blood Pool Surrogate %ID/g (mean ± SD)): 0.1 %ID/g
- tissue uptake at 1 h ([1]; iv, 1 h p.i., 30 MBq IV, HEK-FAP mice, n=9, read-out: Tumor %ID/g (mean ± SD)): 11.1 ± 4.3 %ID/g
- tissue uptake at 1 h ([1]; iv, 1 h p.i., 30 MBq IV, HEK-FAP mice, read-out: Kidney %ID/g (mean ± SD)): 3.9 ± 1 %ID/g
- tissue uptake at 1 h ([1]; iv, 1 h p.i., 30 MBq IV, HEK-FAP mice, read-out: Liver %ID/g (mean ± SD)): 0.3 ± 0.1 %ID/g
- tissue uptake at 3 h ([1]; iv, 3 h p.i., 30 MBq IV, HEK-FAP mice, read-out: Kidney %ID/g (mean ± SD)): 2.5 ± 0.4 %ID/g
- tissue uptake at 3 h ([1]; iv, 3 h p.i., 30 MBq IV, HEK-FAP mice, read-out: Liver %ID/g (mean ± SD)): 0.2 ± 0.1 %ID/g
- tissue uptake at 6 h ([1]; iv, 6 h p.i., 30 MBq IV, HEK-FAP mice, n=9, read-out: Tumor %ID/g (mean ± SD)): 11.4 ± 6.6 %ID/g
- tissue uptake at 6 h ([1]; iv, 6 h p.i., 30 MBq IV, HEK-FAP mice, read-out: Kidney %ID/g (mean ± SD)): 2.2 ± 0.3 %ID/g
- tissue uptake at 6 h ([1]; iv, 6 h p.i., 30 MBq IV, HEK-FAP mice, read-out: Liver %ID/g (mean ± SD)): 0.1 %ID/g
- tissue uptake at 24 h ([1]; iv, 24 h p.i., 30 MBq IV, HEK-FAP mice, n=9, read-out: Tumor %ID/g (mean ± SD)): 9.7 ± 5.3 %ID/g
- tissue uptake at 24 h ([1]; iv, 24 h p.i., 30 MBq IV, HEK-FAP mice, read-out: Kidney %ID/g (mean ± SD)): 1.6 ± 0.2 %ID/g
- tissue uptake at 24 h ([1]; iv, 24 h p.i., 30 MBq IV, HEK-FAP mice, read-out: Liver %ID/g (mean ± SD)): 0.1 %ID/g
- tissue uptake at 48 h ([1]; iv, 48 h p.i., 30 MBq IV, HEK-FAP mice, n=9, read-out: Tumor %ID/g (mean ± SD)): 9.1 ± 5 %ID/g
- tissue uptake at 48 h ([1]; iv, 48 h p.i., 30 MBq IV, HEK-FAP mice, read-out: Kidney %ID/g (mean ± SD)): 1.3 ± 0.2 %ID/g
- tissue uptake at 48 h ([1]; iv, 48 h p.i., 30 MBq IV, HEK-FAP mice, read-out: Liver %ID/g (mean ± SD)): 0.1 %ID/g
- tissue uptake at 1 h ([1]; non-tumor bearing shoulder, 1 h p.i., read-out: Shoulder %ID/g (mean ± SD)): 1.2 ± 0.6 %ID/g
- tissue uptake at 3 h ([1]; non-tumor bearing shoulder, 3 h p.i., read-out: Shoulder %ID/g (mean ± SD)): 0.4 ± 0.1 %ID/g
- tissue uptake at 6 h ([1]; non-tumor bearing shoulder, 6 h p.i., read-out: Shoulder %ID/g (mean ± SD)): 0.1 ± 0.1 %ID/g
- tissue uptake at 24 h ([1]; non-tumor bearing shoulder, 24 h p.i., read-out: Shoulder %ID/g (mean ± SD)): 0.1 %ID/g
- tissue uptake at 48 h ([1]; non-tumor bearing shoulder, 48 h p.i., read-out: Shoulder %ID/g (mean ± SD)): 0.1 %ID/g
Compound: CCCCCC(=O)N[C@H]1CSCc2cc(CSCCNC(=O)CN3CCN(CC(=O)O)CCN(CC(=O)O)CCN(CC(=O)O)CC3)cc(c2)CSC[C@@H](C(=O)O)NC(=O)[C@H](Cc2ccccc2)NC(=O)[C@H](CCC(N)=O)NC(=O)[C@H]([C@@H](C)O)NC(=O)[C@@H]2CCCN2C(=O)[C@@H]2CCCN2C1=O [^111In-FAP-2286, metal not drawn]

- percent retained in mouse plasma [2]: 85%
- fold higher TIAC compared to FAPI-46 (HEK-FAP xenografts): 12 fold
- fold higher absorbed dose delivered to the tumors compared to FAPI-46 (HEK-FAP xenografts): 9 fold
Compound: CCCCCC(=O)N[C@H]1CSCc2cc(CSCCNC(=O)CN3CCN(CC(=O)O)CCN(CC(=O)O)CCN(CC(=O)O)CC3)cc(c2)CSC[C@@H](C(=O)O)NC(=O)[C@H](Cc2ccccc2)NC(=O)[C@H](CCC(N)=O)NC(=O)[C@H]([C@@H](C)O)NC(=O)[C@@H]2CCCN2C(=O)[C@@H]2CCCN2C1=O [FAP-2286]

- tissue uptake at 0.5 h ([3]; 0.5 h after administration): 9.8 %ID/g
- tissue uptake at 3 h ([3]; 3 h after injection): 10.8 %ID/g
Compound: CCCCCC(=O)N[C@H]1CSCc2cc(CSCCNC(=O)CN3CCN(CC(=O)O)CCN(CC(=O)O)CCN(CC(=O)O)CC3)cc(c2)CSC[C@@H](C(=O)O)NC(=O)[C@H](Cc2ccccc2)NC(=O)[C@H](CCC(N)=O)NC(=O)[C@H]([C@@H](C)O)NC(=O)[C@@H]2CCCN2C(=O)[C@@H]2CCCN2C1=O [^68Ga-FAP-2286, metal not drawn]
- PET/CT uptake in patients (neoplastic lesions): significant uptake in neoplastic lesions and low presence in normal tissues
